Test: Fluorescence detection of m-THPC tissue accumulation in patients after intravenous injection
Type: in vivo
Conditions: for fluorescence found/# patients tested: 0.05 mg/kg
Experimental: Comparison of tissue accumulation of m-THPC in patients after administration of the standard m-THPC formulation (“m-THPC”) and a low concentration formulation with low dosage of m-THPC (“m-THPC-dl”).
In this example, the two formulations were studied and compared to show m-THPC uptake in patient tissue after administration. The standard formulation (“m-THPC”) contained the standard concentration of m-THPC for photodynamic therapy, which is 4 mg/ml. The second formulation (“m-THPC-dl”) is a low concentration formulation containing 0.8 mg/ml of m-THPC. Each formulation was prepared with a mixture of pure propylene glycol and pure ethanol (3:2, v/v) as the excipient. Each patient received a reduced dosage of 0.05 mg of m-THPC per kg of body weight.
After administration of the two different formulations, the fluorescence accumulation in patients was monitored and the large difference in the pharmacokinetics between the m-THPC and m-THPC-dl formulations was found.
Comparison of tissue accumulation of m-THPC in patients after administration of the standard m-THPC formulation (“m-THPC”) and a low concentration formulation when m-THPC is diluted with aqueous lipid containing solubilizing preparation Lipofundin®.
In this example, the two formulations were studied and compared to show m-THPC uptake in patient tissue after administration with […]. The standard formulation (“m-THPC”) contained the standard concentration of m-THPC for photodynamic therapy is 4 mg/ml. The second formulation (“m-THPC-Lipo”) is a low concentration formulation containing 0.08 mg/ml of m-THPC (dilution for 50 times, from standard level). It was prepared by the dilution of standard m-THPC solution with the concentration of 4 mg/ml by aqueous lipid containing solubilizing preparation. Lipofundin® MCT (10%, B. Braun Melsungen AG, Melsungen, Germany). Each patient received intravenously the low dosage of 0.05 mg of m-THPC per kg of body weight.
After administration of the two different formulations, the fluorescence accumulation in patients was monitored and a no difference in the pharmacokinetics between the m-THPC and m-THPC-Lipo formulations was found.

Oc1cccc(-c2c3nc(c(-c4cccc(O)c4)c4ccc([nH]4)c(-c4cccc(O)c4)c4nc(c(-c5cccc(O)c5)c5ccc2[nH]5)CC4)C=C3)c1 [m-THPC, Meta-tetra(hydroxyphenyl)chlorin]
patients with measurable fluorescence in the tumors (1 hour after drug injection): not detected in any patients
patients with strong fluorescence in the tumors (3 hours after injection): about 30%
fluorescence in perifocal and intact skin (2 days post-injection): there were patients where fluorescence in perifocal and intact skin was not observed
fluorescence found/# patients tested (Intact skin, 15 min after injection): 0/11
fluorescence found/# patients tested (Intact skin, 1 hour after injection): 0/11
fluorescence found/# patients tested (Intact skin, 3 hours after injection): 2/11
fluorescence found/# patients tested (Intact skin, 1 day after injection): 8/11
fluorescence found/# patients tested (Intact skin, 2 days after injection): 9/11
fluorescence found/# patients tested (Perifocal skin, 15 min after injection): 0/11
fluorescence found/# patients tested (Perifocal skin, 1 hour after injection): 0/11
fluorescence found/# patients tested (Perifocal skin, 3 hours after injection): 2/11
fluorescence found/# patients tested (Perifocal skin, 1 day after injection): 10/11
fluorescence found/# patients tested (Perifocal skin, 2 days after injection): All
fluorescence found/# patients tested (Tumor, 15 min after injection): 0/11
fluorescence found/# patients tested (Tumor, 1 hour after injection): 0/11
fluorescence found/# patients tested (Tumor, 3 hours after injection): 4/11
fluorescence found/# patients tested (Tumor, 1 day after injection): All
fluorescence found/# patients tested (Tumor, 2 days after injection): All

Reference: patent US8580839B2, “Photosensitizer formulations and their use” (Biolitec Pharma Marketing Ltd, priority 2005, dated 2013)
